{"source": "EPA's aquatic toxicity sets", "data": [{"tested_on": "Tetrahymena pyriformis", "test": "48 h IGC50 (-log10 mol/L); higher = more toxic", "values": [{"smiles": "CCC#CCCO", "48 h IGC50 (-log10 mol/L)": 1.98}, {"smiles": "CCC(Br)C(=O)OC", "note": "(stereo not given)", "48 h IGC50 (-log10 mol/L)": 4.02}, {"smiles": "O=C1C=CC(=O)c2c(O)ccc(O)c21", "48 h IGC50 (-log10 mol/L)": 5.83}, {"smiles": "CCOc1cccc(C=O)c1O", "48 h IGC50 (-log10 mol/L)": 3.85}, {"smiles": "COC(=O)CCCCCCCCC(=O)OC", "48 h IGC50 (-log10 mol/L)": 4.01}, {"smiles": "OCc1ccccc1Br", "48 h IGC50 (-log10 mol/L)": 3.1}, {"smiles": "CCCC(C)O", "note": "(stereo not given)", "48 h IGC50 (-log10 mol/L)": 1.84}, {"smiles": "CC(=O)c1cc[nH]c1", "48 h IGC50 (-log10 mol/L)": 2.15}, {"smiles": "N#Cc1cc(Br)c(O)c(Br)c1", "48 h IGC50 (-log10 mol/L)": 4.16}, {"smiles": "C=C(C)C(=O)OCC(C)C", "48 h IGC50 (-log10 mol/L)": 2.72}, {"smiles": "CC1=CCCC1=O", "48 h IGC50 (-log10 mol/L)": 2.17}, {"smiles": "CC(=O)C(C)=O", "48 h IGC50 (-log10 mol/L)": 2.77}, {"smiles": "CCC(=O)C(=O)CC", "48 h IGC50 (-log10 mol/L)": 2.99}, {"smiles": "Brc1ccncc1.Cl", "48 h IGC50 (-log10 mol/L)": 2.44}, {"smiles": "CCc1cccc(CC)c1N", "48 h IGC50 (-log10 mol/L)": 3.31}, {"smiles": "CCCCCCCCNC(N)=S", "48 h IGC50 (-log10 mol/L)": 4.51}, {"smiles": "CCCC/C=C/C=O", "48 h IGC50 (-log10 mol/L)": 4.05}, {"smiles": "c1ccc(Cc2ccncc2)cc1", "48 h IGC50 (-log10 mol/L)": 3.63}, {"smiles": "O=C1C=C(c2ccccc2)C(=O)C=C1c1ccccc1", "48 h IGC50 (-log10 mol/L)": 4.48}, {"smiles": "CCCCCC#N", "48 h IGC50 (-log10 mol/L)": 2.62}, {"smiles": "C=CC(=O)OC(C)(C)C", "48 h IGC50 (-log10 mol/L)": 3.27}, {"smiles": "OCC#Cc1ccccc1", "48 h IGC50 (-log10 mol/L)": 3.07}, {"smiles": "N#CC(Cl)Cl", "48 h IGC50 (-log10 mol/L)": 3.97}, {"smiles": "O=[N+]([O-])c1cc(Cl)cc(Cl)c1[N+](=O)[O-]", "48 h IGC50 (-log10 mol/L)": 5.42}, {"smiles": "Cc1c(O)cccc1[N+](=O)[O-]", "48 h IGC50 (-log10 mol/L)": 3.78}, {"smiles": "Oc1ccc(F)cc1F", "48 h IGC50 (-log10 mol/L)": 3.6}, {"smiles": "CCCCOC(=O)CCCCCCC(=O)OCCCC", "48 h IGC50 (-log10 mol/L)": 4.66}, {"smiles": "COc1cc(CCO)ccc1O", "48 h IGC50 (-log10 mol/L)": 2.82}, {"smiles": "Cc1ccc(-c2ccccc2)cc1", "48 h IGC50 (-log10 mol/L)": 4.66}, {"smiles": "Cc1ccc2nc(C)ccc2c1", "48 h IGC50 (-log10 mol/L)": 3.68}, {"smiles": "CCCc1ccccc1N", "48 h IGC50 (-log10 mol/L)": 3.08}, {"smiles": "O=C(OCCO)c1ccccc1O", "48 h IGC50 (-log10 mol/L)": 2.92}, {"smiles": "OC/C=C/c1ccccc1", "48 h IGC50 (-log10 mol/L)": 2.92}, {"smiles": "CCC#CC(C)O", "note": "(stereo not given)", "48 h IGC50 (-log10 mol/L)": 3.51}, {"smiles": "N#CCCBr", "48 h IGC50 (-log10 mol/L)": 2.5}, {"smiles": "CC(C)(C)c1ccc(N)cc1", "48 h IGC50 (-log10 mol/L)": 3.36}, {"smiles": "N#Cc1cccc(C=O)c1", "48 h IGC50 (-log10 mol/L)": 2.98}, {"smiles": "C=CC(=O)OCCCCCCC", "48 h IGC50 (-log10 mol/L)": 4.09}, {"smiles": "O=C(O)CCC(=O)O", "48 h IGC50 (-log10 mol/L)": 2.06}, {"smiles": "CCCC(=O)CCC", "48 h IGC50 (-log10 mol/L)": 2.33}, {"smiles": "CC(=O)O[C@@H]1C[C@@H]2CC[C@@]1(C)C2(C)C", "48 h IGC50 (-log10 mol/L)": 3.68}, {"smiles": "C=CCCC(C)=O", "48 h IGC50 (-log10 mol/L)": 1.86}, {"smiles": "Ic1ccccc1", "48 h IGC50 (-log10 mol/L)": 3.36}, {"smiles": "CCC#CCO", "48 h IGC50 (-log10 mol/L)": 2.43}, {"smiles": "CCCCCC(=O)CC(C)=O", "48 h IGC50 (-log10 mol/L)": 3.51}, {"smiles": "COc1ccc(C=O)cc1", "48 h IGC50 (-log10 mol/L)": 2.95}, {"smiles": "O=[N+]([O-])c1cc(Cl)c(Cl)c(Cl)c1", "48 h IGC50 (-log10 mol/L)": 4.55}, {"smiles": "Oc1ccccc1-c1ccccc1O", "48 h IGC50 (-log10 mol/L)": 3.88}, {"smiles": "C=CC(O)CC", "note": "(stereo not given)", "48 h IGC50 (-log10 mol/L)": 1.65}, {"smiles": "CCOC(=O)C(C(=O)OCC)=C(C)C", "48 h IGC50 (-log10 mol/L)": 2.93}, {"smiles": "CC(=O)OCCCCCCl", "48 h IGC50 (-log10 mol/L)": 2.87}, {"smiles": "Cc1cc(O)ccc1[N+](=O)[O-]", "48 h IGC50 (-log10 mol/L)": 4.73}, {"smiles": "CNCCc1ccccc1", "48 h IGC50 (-log10 mol/L)": 2.59}, {"smiles": "CN(C)Cc1cc(CN(C)C)c(O)c(CN(C)C)c1", "48 h IGC50 (-log10 mol/L)": 2.48}, {"smiles": "CCCCCCOC=O", "48 h IGC50 (-log10 mol/L)": 2.62}, {"smiles": "O=C(O)c1cccc(O)c1", "48 h IGC50 (-log10 mol/L)": 2.19}, {"smiles": "CCSCC", "48 h IGC50 (-log10 mol/L)": 2.02}, {"smiles": "C#CC(C)(C)N", "48 h IGC50 (-log10 mol/L)": 2.09}, {"smiles": "C#CCNC", "48 h IGC50 (-log10 mol/L)": 2.02}, {"smiles": "COC(=O)CCC(=O)OC", "48 h IGC50 (-log10 mol/L)": 1.94}, {"smiles": "CCc1ccc(N)cc1", "48 h IGC50 (-log10 mol/L)": 3.03}, {"smiles": "N#CCCCBr", "48 h IGC50 (-log10 mol/L)": 2.54}, {"smiles": "CCCC#CC(=O)OCC", "48 h IGC50 (-log10 mol/L)": 3.7}, {"smiles": "C=CC(=O)OCc1ccccc1", "48 h IGC50 (-log10 mol/L)": 4.35}, {"smiles": "CCC/C=C/CO", "48 h IGC50 (-log10 mol/L)": 2.53}, {"smiles": "CCC#CCC(C)O", "note": "(stereo not given)", "48 h IGC50 (-log10 mol/L)": 2.38}, {"smiles": "CCCCCCN", "48 h IGC50 (-log10 mol/L)": 2.78}, {"smiles": "N#CCc1ccc(O)cc1", "48 h IGC50 (-log10 mol/L)": 2.62}, {"smiles": "O=Cc1cc(Br)c(O)c(Br)c1", "48 h IGC50 (-log10 mol/L)": 3.89}, {"smiles": "CCCCCCCl", "48 h IGC50 (-log10 mol/L)": 3.78}, {"smiles": "N#CCC(=O)OC1CCCCC1", "48 h IGC50 (-log10 mol/L)": 2.91}, {"smiles": "CCCCCC(=O)Cl", "48 h IGC50 (-log10 mol/L)": 3.34}, {"smiles": "Cc1cccc(C)n1", "48 h IGC50 (-log10 mol/L)": 2.19}, {"smiles": "OCCCCCCBr", "48 h IGC50 (-log10 mol/L)": 3.01}, {"smiles": "O=[N+]([O-])c1ccc(CO)cc1", "48 h IGC50 (-log10 mol/L)": 3.12}, {"smiles": "COc1cc(C#N)ccc1O", "48 h IGC50 (-log10 mol/L)": 2.97}, {"smiles": "CC#CC(O)CC", "note": "(stereo not given)", "48 h IGC50 (-log10 mol/L)": 2.81}, {"smiles": "O=C(OCc1ccccc1)c1ccc(O)cc1", "48 h IGC50 (-log10 mol/L)": 4.55}, {"smiles": "CCCCCCCCC(O)CCC", "note": "(stereo not given)", "48 h IGC50 (-log10 mol/L)": 4.65}, {"smiles": "O=C(O)CCCBr", "48 h IGC50 (-log10 mol/L)": 2.23}, {"smiles": "O=Cc1ccc(O)c(O)c1", "48 h IGC50 (-log10 mol/L)": 3.11}, {"smiles": "CC(C)OC(=O)CC#N", "48 h IGC50 (-log10 mol/L)": 2.05}, {"smiles": "Clc1ccc(Br)s1", "48 h IGC50 (-log10 mol/L)": 3.75}, {"smiles": "Nc1c([N+](=O)[O-])cc(Cl)cc1[N+](=O)[O-]", "48 h IGC50 (-log10 mol/L)": 4.15}, {"smiles": "OCc1ccc2ccccc2c1", "48 h IGC50 (-log10 mol/L)": 3.39}, {"smiles": "OCCCCCCCCCCO", "48 h IGC50 (-log10 mol/L)": 3.22}, {"smiles": "O=C(c1ccccc1)c1cccc(Cl)c1", "48 h IGC50 (-log10 mol/L)": 4.55}, {"smiles": "CCOC(=O)/C=C/c1ccccc1", "48 h IGC50 (-log10 mol/L)": 3.99}, {"smiles": "O=[N+]([O-])c1ccccc1CO", "48 h IGC50 (-log10 mol/L)": 2.85}, {"smiles": "O=C(/C=C/c1ccccc1)N=C=S", "48 h IGC50 (-log10 mol/L)": 3.29}, {"smiles": "Nc1ccccc1Cl", "48 h IGC50 (-log10 mol/L)": 2.83}, {"smiles": "Cc1ccc(C#N)cc1", "48 h IGC50 (-log10 mol/L)": 2.9}, {"smiles": "CCC(C)(C)O", "48 h IGC50 (-log10 mol/L)": 1.83}, {"smiles": "CCCCCOc1ccc(C=O)cc1", "48 h IGC50 (-log10 mol/L)": 4.18}, {"smiles": "CC(C)C=CC=O", "48 h IGC50 (-log10 mol/L)": 3.82}, {"smiles": "CCC(=O)NC", "48 h IGC50 (-log10 mol/L)": 1.47}, {"smiles": "CCCCCc1cccs1", "48 h IGC50 (-log10 mol/L)": 4.2}, {"smiles": "C=C(C)C(=O)OCC(CC)CCCC", "note": "(stereo not given)", "48 h IGC50 (-log10 mol/L)": 4.57}, {"smiles": "Nc1ccc(O)c(N)c1", "48 h IGC50 (-log10 mol/L)": 3.13}, {"smiles": "O=[N+]([O-])c1cc(CO)cc([N+](=O)[O-])c1", "48 h IGC50 (-log10 mol/L)": 3.53}, {"smiles": "NC(=O)c1cccc([N+](=O)[O-])c1", "48 h IGC50 (-log10 mol/L)": 2.81}, {"smiles": "CCCCCc1ccc(O)cc1", "48 h IGC50 (-log10 mol/L)": 4.58}, {"smiles": "CC(=O)c1ccn(C)c1", "48 h IGC50 (-log10 mol/L)": 2}, {"smiles": "CCN(CC)C(=O)CCl", "48 h IGC50 (-log10 mol/L)": 3.52}, {"smiles": "O=C(O)c1ccc(Cl)c(Cl)c1", "48 h IGC50 (-log10 mol/L)": 3.31}, {"smiles": "Fc1ccccn1", "48 h IGC50 (-log10 mol/L)": 1.8}, {"smiles": "O=C(O)Cc1ccc(O)cc1", "48 h IGC50 (-log10 mol/L)": 1.5}, {"smiles": "CC(C)CC#N", "48 h IGC50 (-log10 mol/L)": 2.12}, {"smiles": "CCCCC(O)CO", "note": "(stereo not given)", "48 h IGC50 (-log10 mol/L)": 1.73}, {"smiles": "O=[N+]([O-])c1ccc(Cl)cc1Cl", "48 h IGC50 (-log10 mol/L)": 3.99}, {"smiles": "Oc1c(-c2ccccc2)cccc1-c1ccccc1", "48 h IGC50 (-log10 mol/L)": 5.11}, {"smiles": "O=Cc1ccoc1", "48 h IGC50 (-log10 mol/L)": 3}, {"smiles": "N#Cc1cc([N+](=O)[O-])c(Cl)c([N+](=O)[O-])c1", "48 h IGC50 (-log10 mol/L)": 5.66}, {"smiles": "CCCCCCN=C=S", "48 h IGC50 (-log10 mol/L)": 4.75}, {"smiles": "CC(=O)OC1=CCCCC1", "48 h IGC50 (-log10 mol/L)": 2.6}, {"smiles": "C/C=C/CCCO", "48 h IGC50 (-log10 mol/L)": 2.25}, {"smiles": "NNC=O", "48 h IGC50 (-log10 mol/L)": 2.13}, {"smiles": "C/C=C/C(C)=O", "48 h IGC50 (-log10 mol/L)": 3.54}, {"smiles": "CCCCC(C)O", "note": "(stereo not given)", "48 h IGC50 (-log10 mol/L)": 2.07}, {"smiles": "CC(C)COC(=O)C(C)C", "48 h IGC50 (-log10 mol/L)": 2.41}]}]}
